Values after ≈ are worked out from the molar mass of the structure shown. Active and inactive are the calls of the source. The calls are words filed in the database; no cut-off is given here.
What was measured:
[1] = test system: Canis familiaris; test: Toxicity in dog at 30 to 300 mg/kg administered via oral gavage on day 1 and day 5 by hematoxylin-eosin staining-based necroscopic method; type: organism-based, Canis lupus familiaris; conditions: in vivo
[2] = test system: Rattus norvegicus; test: Drug uptake in rat at 62.5 to 250 mg/kg administered via oral gavage on day 1 and day 4; type: ADME, organism-based; conditions: in vivo
[3] = test system: Rattus norvegicus; test: Toxicity in rat at 62.5 to 250 mg/kg administered via oral gavage on day 1 and day 4; type: organism-based; conditions: in vivo
[4] = Drug uptake in dog brain at 3 mg/kg, po after 96 hrs; type: ADME, organism-based, Canis lupus familiaris; conditions: read-out: Drug uptake
[5] = test system: Canis familiaris; test: Inhibition of LPS/Bz-ATP-induced IL-1beta release in dog blood at 3 mg/kg, po after 4 to 96 hrs; type: functional, organism-based; conditions: Canis lupus familiaris
[6] = test system: Rattus norvegicus; test: Inhibition of Bz-ATP-induced IL-1beta release in po dosed Sprague-Dawley rat hippocampus preincubated for 1 hr followed by Bz-ATP challenge measured after 2 hrs by microdialysis method; type: functional, organism-based
[7] = target: P2X purinoceptor 7 (Rattus norvegicus) (UniProt Q64663); test: Displacement of [3H]-(6S)-7-[[2-chloro-3-(trifluoromethyl)phenyl]methyl]-6-methyl-3-pyrimidin-2-yl-5,6dihydro[1,2,4]triazolo[4,3-a]pyrazin-8-one from P2X7 in rat frontal cortex at 100 pM to 10 uM
[8] = test system: Rattus norvegicus; test: Ex vivo receptor occupancy at P2X7 in Sprague-Dawley rat brain at 10 mg/kg, po after 24 hrs by autoradiography; type: functional
[9] = target: P2X purinoceptor (Macaca mulatta, UniProt G7N604); test: Antagonist activity at macaque P2X7 assessed as inhibition of BzATP-induced calcium flux preincubated for 30 mins followed by BzATP addition measured over 180 secs by FLIPR assay
[10] = Antagonist activity at dog P2X7 assessed as inhibition of BzATP-induced calcium flux preincubated for 30 mins followed by BzATP addition measured over 180 secs by FLIPR assay; design: species or system Canis lupus familiaris
[11] = Apparent permeability across apical to basolateral side in human Caco2 cells; type: ADME, cell-based; conditions: Caco-2
[12] = target: P2X purinoceptor 4 (Homo sapiens) (UniProt Q99571); test: Antagonist activity at P2X4 (unknown origin) assessed as inhibition of BzATP-induced calcium flux up to 10 uM preincubated for 30 mins followed by BzATP addition measured over 180 secs by FLIPR assay
[13] = target: P2X2/P2X3 heterotrimeric receptor (Homo sapiens) (UniProt Q9UBL9+P56373); test: Antagonist activity at P2X2/3 (unknown origin) assessed as inhibition of BzATP-induced calcium flux up to 10 uM preincubated for 30 mins followed by BzATP addition measured over 180 secs by FLIPR assay; type: protein-complex assay
[14] = target: P2X purinoceptor 3 (Homo sapiens) (UniProt P56373); test: Antagonist activity at P2X3 (unknown origin) assessed as inhibition of BzATP-induced calcium flux up to 10 uM preincubated for 30 mins followed by BzATP addition measured over 180 secs by FLIPR assay
[15] = target: P2X purinoceptor 2 (Homo sapiens) (UniProt Q9UBL9); test: Antagonist activity at P2X2 (unknown origin) assessed as inhibition of BzATP-induced calcium flux up to 10 uM preincubated for 30 mins followed by BzATP addition measured over 180 secs by FLIPR assay
[16] = target: P2X purinoceptor 1 (Homo sapiens) (UniProt P51575); test: Antagonist activity at P2X1 (unknown origin) assessed as inhibition of BzATP-induced calcium flux up to 10 uM preincubated for 30 mins followed by BzATP addition measured over 180 secs by FLIPR assay
[17] = Metabolic stability in cynomolgus monkey liver microsomes at 1 uM after 5 to 60 mins by LC-MS/MS analysis; type: ADME, Macaca fascicularis, microsome
[18] = test system: Liver; test: Metabolic stability in dog liver microsomes at 1 uM after 5 to 60 mins by LC-MS/MS analysis; type: ADME, Canis lupus familiaris, microsome
[19] = test system: Liver; test: Metabolic stability in mouse liver microsomes at 1 uM after 5 to 60 mins by LC-MS/MS analysis; type: ADME, microsome
[20] = test system: Liver; test: Metabolic stability in rat liver microsomes at 1 uM after 5 to 60 mins by LC-MS/MS analysis; type: ADME, microsome
[21] = test system: Liver; test: Metabolic stability in human liver microsomes at 1 uM after 5 to 60 mins by LC-MS/MS analysis; type: ADME, microsome
[22] = test system: Canis familiaris; test: Oral bioavailability in beagle dog at 2.5 mg/kg by LC-MS/MS analysis; type: ADME, organism-based, Canis lupus familiaris; conditions: in vivo
[23] = Half life in cynomolgus monkey at 1 mg/kg, iv by LC-MS/MS analysis; type: ADME, organism-based, Macaca fascicularis; conditions: in vivo
[24] = Clearance in beagle dog at 0.5 mg/kg, iv or 2.5 mg/kg, po by LC-MS/MS analysis; type: ADME, organism-based, Canis lupus familiaris; conditions: in vivo
[25] = target: T1, Cytochrome P450 2C8 (Homo sapiens, UniProt P10632); test: Inhibition of CYP2C8 in human liver microsomes using paclitaxel as substrate after 15 mins by LC-MS/MS analysis; type: ADME
T1 sequence (P10632 whole entry): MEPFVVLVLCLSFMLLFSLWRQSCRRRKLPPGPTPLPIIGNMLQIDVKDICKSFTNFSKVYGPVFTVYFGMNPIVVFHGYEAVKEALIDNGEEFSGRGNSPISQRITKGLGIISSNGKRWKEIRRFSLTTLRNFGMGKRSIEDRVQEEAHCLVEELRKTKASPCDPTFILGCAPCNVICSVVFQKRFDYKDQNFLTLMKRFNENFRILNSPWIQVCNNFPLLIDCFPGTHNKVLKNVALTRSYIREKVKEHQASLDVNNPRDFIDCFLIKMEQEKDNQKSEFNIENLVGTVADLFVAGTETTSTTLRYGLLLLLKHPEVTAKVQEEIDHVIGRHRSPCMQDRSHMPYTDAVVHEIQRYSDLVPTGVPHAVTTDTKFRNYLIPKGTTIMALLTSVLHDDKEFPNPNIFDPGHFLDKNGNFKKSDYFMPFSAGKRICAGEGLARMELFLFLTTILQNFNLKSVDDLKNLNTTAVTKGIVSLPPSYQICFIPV

[26] = test system: Rattus norvegicus; test: Ex vivo receptor occupancy at P2X7 in po dosed Sprague-Dawley rat brain after 60 mins by autoradiography; type: functional
[27] = Oral bioavailability in Sprague-Dawley rat at 5 mg/kg by LC-MS/MS analysis; type: ADME, organism-based; conditions: in vivo
[28] = Clearance in Sprague-Dawley rat at 1 mg/kg, iv or 5 mg/kg, po by LC-MS/MS analysis; type: ADME, organism-based; conditions: in vivo
[29] = Protein binding in rat brain at 5 uM after 5 hrs by equilibrium dialysis method; type: ADME, tissue-based; conditions: read-out: PB (converted)
[30] = Solubility of compound in phosphate buffer at pH 2 after 3 days; type: physicochemical
[31] = Protein binding in human plasma at 1 uM after 6 hrs by equilibrium dialysis method; type: ADME, cell-free; conditions: read-out: PPB (converted)
[32] = Protein binding in mouse plasma at 1 uM after 6 hrs by equilibrium dialysis method; type: ADME, cell-free; conditions: read-out: PPB (converted)
[33] = Protein binding in rat plasma at 1 uM after 6 hrs by equilibrium dialysis method; type: ADME, cell-free; conditions: read-out: PPB (converted)
[34] = test system: Canis familiaris; test: Drug uptake in dog at 30 to 300 mg/kg administered via oral gavage on day 1 and day 5; type: ADME, organism-based, Canis lupus familiaris; conditions: in vivo
[35] = target: P2X purinoceptor 7 (Homo sapiens) (UniProt Q99572); conditions: 100 pM
P2X purinoceptor 7 (Homo sapiens), sequence (Q99572 whole entry): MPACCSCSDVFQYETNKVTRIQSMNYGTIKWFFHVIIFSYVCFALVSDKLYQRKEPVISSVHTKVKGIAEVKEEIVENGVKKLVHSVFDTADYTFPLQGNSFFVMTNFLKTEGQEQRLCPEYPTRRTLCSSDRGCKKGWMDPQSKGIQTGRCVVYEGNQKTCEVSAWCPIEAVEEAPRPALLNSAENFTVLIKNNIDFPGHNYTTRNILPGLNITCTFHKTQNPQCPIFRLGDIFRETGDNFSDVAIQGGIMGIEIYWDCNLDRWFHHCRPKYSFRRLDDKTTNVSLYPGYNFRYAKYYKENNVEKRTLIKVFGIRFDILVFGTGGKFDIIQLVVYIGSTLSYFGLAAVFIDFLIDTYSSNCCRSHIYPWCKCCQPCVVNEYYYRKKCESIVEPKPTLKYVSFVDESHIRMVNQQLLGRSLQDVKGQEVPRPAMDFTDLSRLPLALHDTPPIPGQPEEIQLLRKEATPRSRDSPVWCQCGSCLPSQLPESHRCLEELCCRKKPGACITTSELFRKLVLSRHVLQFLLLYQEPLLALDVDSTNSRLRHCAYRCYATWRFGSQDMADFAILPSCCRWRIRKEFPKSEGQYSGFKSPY
Description: Displacement of [3H]-(6S)-7-[[2-chloro-3-(trifluoromethyl)phenyl]methyl]-6-methyl-3-pyrimidin-2-yl-5,6dihydro[1,2,4]triazolo[4,3-a]pyrazin-8-one from P2X7 in human superior frontal gyrus at 100 pM to 10 uM

P2X purinoceptor 3 (Homo sapiens), sequence (P56373 whole entry): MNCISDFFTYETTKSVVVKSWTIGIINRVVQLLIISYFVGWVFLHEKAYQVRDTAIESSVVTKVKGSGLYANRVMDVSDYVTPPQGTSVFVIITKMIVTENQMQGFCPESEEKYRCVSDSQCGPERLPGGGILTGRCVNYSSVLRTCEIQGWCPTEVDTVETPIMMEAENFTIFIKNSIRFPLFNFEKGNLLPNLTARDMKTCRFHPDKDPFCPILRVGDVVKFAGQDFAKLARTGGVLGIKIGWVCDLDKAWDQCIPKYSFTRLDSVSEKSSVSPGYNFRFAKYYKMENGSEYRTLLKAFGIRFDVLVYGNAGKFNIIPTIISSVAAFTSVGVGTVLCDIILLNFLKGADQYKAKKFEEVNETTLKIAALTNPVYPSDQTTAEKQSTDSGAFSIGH
P2X purinoceptor 4 (Homo sapiens), sequence (Q99571 whole entry): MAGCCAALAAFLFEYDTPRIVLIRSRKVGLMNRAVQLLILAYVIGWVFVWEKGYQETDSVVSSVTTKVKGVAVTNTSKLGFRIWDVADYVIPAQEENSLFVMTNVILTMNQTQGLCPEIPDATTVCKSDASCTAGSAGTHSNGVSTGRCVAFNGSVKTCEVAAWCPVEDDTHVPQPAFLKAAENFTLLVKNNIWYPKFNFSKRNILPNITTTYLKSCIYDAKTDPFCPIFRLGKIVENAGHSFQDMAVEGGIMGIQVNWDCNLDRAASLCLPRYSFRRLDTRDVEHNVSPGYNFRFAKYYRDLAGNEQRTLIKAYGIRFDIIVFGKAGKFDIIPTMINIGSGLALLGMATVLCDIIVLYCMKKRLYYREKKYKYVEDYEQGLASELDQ
P2X purinoceptor 7 (Rattus norvegicus), sequence (Q64663 whole entry): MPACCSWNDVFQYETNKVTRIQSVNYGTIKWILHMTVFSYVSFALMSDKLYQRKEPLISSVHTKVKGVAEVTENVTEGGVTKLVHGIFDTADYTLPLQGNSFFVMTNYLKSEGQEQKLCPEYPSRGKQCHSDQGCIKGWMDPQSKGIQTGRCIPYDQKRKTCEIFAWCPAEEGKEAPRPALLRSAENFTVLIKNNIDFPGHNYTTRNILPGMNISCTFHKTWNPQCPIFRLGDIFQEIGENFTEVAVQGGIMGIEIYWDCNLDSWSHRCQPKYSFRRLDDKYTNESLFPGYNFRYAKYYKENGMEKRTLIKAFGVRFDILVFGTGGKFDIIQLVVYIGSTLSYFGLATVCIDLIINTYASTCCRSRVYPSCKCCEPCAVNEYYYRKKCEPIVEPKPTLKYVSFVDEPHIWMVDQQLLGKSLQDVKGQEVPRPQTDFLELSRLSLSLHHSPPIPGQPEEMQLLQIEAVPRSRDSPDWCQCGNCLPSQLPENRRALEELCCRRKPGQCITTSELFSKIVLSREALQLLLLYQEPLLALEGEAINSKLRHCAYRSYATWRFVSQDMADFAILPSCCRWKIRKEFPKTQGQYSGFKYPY
P2X purinoceptor 1 (Homo sapiens), sequence (P51575 whole entry): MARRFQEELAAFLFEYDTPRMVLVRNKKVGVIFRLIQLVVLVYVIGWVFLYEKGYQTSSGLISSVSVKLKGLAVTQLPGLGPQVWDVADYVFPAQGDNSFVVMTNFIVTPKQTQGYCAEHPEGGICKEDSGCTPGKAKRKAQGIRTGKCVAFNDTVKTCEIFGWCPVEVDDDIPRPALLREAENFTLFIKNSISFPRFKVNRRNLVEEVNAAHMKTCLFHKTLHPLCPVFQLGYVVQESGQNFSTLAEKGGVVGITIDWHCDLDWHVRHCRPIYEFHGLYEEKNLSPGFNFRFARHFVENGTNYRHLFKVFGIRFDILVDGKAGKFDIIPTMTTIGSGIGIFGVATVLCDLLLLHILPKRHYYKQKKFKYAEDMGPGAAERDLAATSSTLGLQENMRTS
P2X purinoceptor 2 (Homo sapiens), sequence (Q9UBL9 whole entry): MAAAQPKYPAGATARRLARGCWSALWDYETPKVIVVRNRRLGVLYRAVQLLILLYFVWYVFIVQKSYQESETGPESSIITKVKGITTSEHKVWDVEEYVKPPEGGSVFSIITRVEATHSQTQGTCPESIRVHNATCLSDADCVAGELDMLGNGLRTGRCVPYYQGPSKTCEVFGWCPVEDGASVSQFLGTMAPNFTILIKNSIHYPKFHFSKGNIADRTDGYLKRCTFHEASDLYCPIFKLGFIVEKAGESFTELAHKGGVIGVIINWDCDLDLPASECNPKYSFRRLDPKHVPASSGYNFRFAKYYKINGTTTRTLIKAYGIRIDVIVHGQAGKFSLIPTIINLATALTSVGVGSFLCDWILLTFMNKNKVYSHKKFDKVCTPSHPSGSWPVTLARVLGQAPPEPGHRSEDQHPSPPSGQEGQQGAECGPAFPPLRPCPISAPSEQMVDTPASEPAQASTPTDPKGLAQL
P2X purinoceptor, sequence (G7N604 whole entry): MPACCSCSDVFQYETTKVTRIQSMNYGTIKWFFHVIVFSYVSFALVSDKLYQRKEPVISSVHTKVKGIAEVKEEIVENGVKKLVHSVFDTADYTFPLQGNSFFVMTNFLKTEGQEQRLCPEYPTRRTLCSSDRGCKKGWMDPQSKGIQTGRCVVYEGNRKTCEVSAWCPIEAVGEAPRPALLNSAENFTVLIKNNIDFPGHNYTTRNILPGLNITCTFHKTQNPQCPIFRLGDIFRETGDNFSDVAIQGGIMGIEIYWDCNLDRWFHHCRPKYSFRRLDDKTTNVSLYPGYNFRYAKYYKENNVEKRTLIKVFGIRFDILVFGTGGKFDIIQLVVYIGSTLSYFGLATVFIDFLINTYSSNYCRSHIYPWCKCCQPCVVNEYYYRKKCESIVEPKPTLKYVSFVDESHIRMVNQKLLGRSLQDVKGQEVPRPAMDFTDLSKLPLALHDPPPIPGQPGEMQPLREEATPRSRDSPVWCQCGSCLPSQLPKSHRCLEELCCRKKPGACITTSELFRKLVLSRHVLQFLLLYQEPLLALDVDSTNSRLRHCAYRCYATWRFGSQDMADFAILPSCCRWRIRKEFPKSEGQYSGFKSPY

Drug uptake [2]: Active
concentration at 96 h [4]: > 1000 nM
inhibition [7]: Dose-dependent effect
IC50 [9]: 0.00794 µM
pIC50 [10]: 7.9
Papp A→B [11]: 75.3 ×10⁻⁶ cm/s
inhibition [12]: inactive
inhibition [13]: inactive
inhibition [14]: inactive
inhibition [15]: inactive
inhibition [16]: inactive
Stability [17]: Stable
Stability [18]: Stable
Stability [19]: Stable
Stability [20]: Stable
Stability [21]: Stable
F [22]: 164%
half-life [23]: 6.9 h
clearance [24]: 0.9 mL/min/kg
IC50 [25]: 9.6 µM
Occ [26]: Dose-dependent effect
bioavailability [27]: 96%
clearance [28]: 2.9 mL/min/kg
fraction unbound at 5 h, 5 µM [29]: 0.051
solubility at 72 h [30]: 38.7 µM (≈ 17.1 µg/mL)
fraction unbound at 6 h, 1 µM [31]: 0.112
fraction unbound at 6 h, 1 µM [32]: 0.113
fraction unbound at 6 h, 1 µM [33]: 0.122
Drug uptake [34]: Active
inhibition [35]: Dose-dependent effect
Compound: C[C@@H]1c2nnn(-c3ncc(F)cn3)c2CCN1C(=O)c1cccc(C(F)(F)F)c1Cl [JNJ-54175446]
Activity [1]: Non-Toxic
Activity [3]: Non-Toxic
inhibition [5]: Active
inhibition [6]: Dose-dependent effect
Occ [8]: >80%
ED50 ([26]; 1 h): 0.46 mg/kg

Source: ChEMBL document CHEMBL4052642, “4-Methyl-6,7-dihydro-4H-triazolo[4,5-c]pyridine-Based P2X7 Receptor Antagonists: Optimization of Pharmacokinetic Properties Leading to the Identification of a Clinical Candidate” (J Med Chem, 2017)
